Numbers after ± are expanded uncertainties.
Assay: activity coefficient (dimensionless); of the first substance listed, at infinite dilution; xn = mol fraction of the nth substance listed
Conditions: Liquid, Chromatography, x1 = 0

OC1CCCCC1 [cyclohexanol] + CCCC[N+](C)(C)C.O=S(=O)([N-]S(=O)(=O)C(F)(F)F)C(F)(F)F
activity coefficient (343.65 K): 3.52 ± 0.24
activity coefficient (354.05 K): 2.89 ± 0.2
activity coefficient (364.45 K): 2.54 ± 0.17
activity coefficient (373.95 K): 2.27 ± 0.15
activity coefficient (385.55 K): 1.95 ± 0.13

C=CCCCCCCC [1-nonene] + CCCC[N+](C)(C)C.O=S(=O)([N-]S(=O)(=O)C(F)(F)F)C(F)(F)F
activity coefficient (306.65 K): 34.1 ± 2.3
activity coefficient (311.98 K): 32.6 ± 2.2
activity coefficient (322.55 K): 29.9 ± 2
activity coefficient (333.25 K): 26.7 ± 1.8
activity coefficient (343.65 K): 24.5 ± 1.7
activity coefficient (354.05 K): 22.3 ± 1.5
activity coefficient (364.55 K): 20.9 ± 1.4

CN1CCCC1=O [N-methylpyrrolidone] + CCCC[N+](C)(C)C.O=S(=O)([N-]S(=O)(=O)C(F)(F)F)C(F)(F)F
activity coefficient (312.35 K): 112 ± 7.7
activity coefficient (322.75 K): 81.3 ± 5.6
activity coefficient (333.35 K): 60.4 ± 4.1
activity coefficient (343.75 K): 46.1 ± 3.1
activity coefficient (354.15 K): 36.5 ± 2.5
activity coefficient (364.75 K): 28 ± 1.9
activity coefficient (375.15 K): 22.4 ± 1.5

CCCCCC(=O)OC [methyl hexanoate] + CCCC[N+](C)(C)C.O=S(=O)([N-]S(=O)(=O)C(F)(F)F)C(F)(F)F
activity coefficient (343.65 K): 2.43 ± 0.17
activity coefficient (354.05 K): 2.33 ± 0.16
activity coefficient (364.55 K): 2.19 ± 0.15
activity coefficient (374.95 K): 2.08 ± 0.14

C1CCCCC1 [cyclohexane] + CCCC[N+](C)(C)C.O=S(=O)([N-]S(=O)(=O)C(F)(F)F)C(F)(F)F
activity coefficient (300.95 K): 4.15 ± 0.28
activity coefficient (312.25 K): 3.84 ± 0.26
activity coefficient (322.85 K): 3.6 ± 0.25
activity coefficient (333.35 K): 3.37 ± 0.23

C=CCCC [1-pentene] + CCCC[N+](C)(C)C.O=S(=O)([N-]S(=O)(=O)C(F)(F)F)C(F)(F)F
activity coefficient (301.85 K): 6.06 ± 0.41
activity coefficient (312.35 K): 5.79 ± 0.39

CCCCO [butan-1-ol] + CCCC[N+](C)(C)C.O=S(=O)([N-]S(=O)(=O)C(F)(F)F)C(F)(F)F
activity coefficient (302.55 K): 3.62 ± 0.25
activity coefficient (312.15 K): 3.22 ± 0.22
activity coefficient (322.85 K): 2.83 ± 0.19
activity coefficient (333.35 K): 2.49 ± 0.17
activity coefficient (343.65 K): 2.24 ± 0.15

C=CCCCCCCCCCC [1-dodecene] + CCCC[N+](C)(C)C.O=S(=O)([N-]S(=O)(=O)C(F)(F)F)C(F)(F)F
activity coefficient (333.25 K): 76.8 ± 5.3
activity coefficient (343.75 K): 68.9 ± 4.7
activity coefficient (354.05 K): 61.4 ± 4.2
activity coefficient (364.55 K): 54.6 ± 3.7
activity coefficient (371.95 K): 49 ± 3.4

c1ccccc1 [benzene] + CCCC[N+](C)(C)C.O=S(=O)([N-]S(=O)(=O)C(F)(F)F)C(F)(F)F
activity coefficient (322.75 K): 1.3 ± 0.08
activity coefficient (333.35 K): 1.26 ± 0.08
activity coefficient (343.55 K): 1.26 ± 0.08
activity coefficient (354.05 K): 1.22 ± 0.08
activity coefficient (364.45 K): 1.2 ± 0.08

CC(C)O [propan-2-ol] + CCCC[N+](C)(C)C.O=S(=O)([N-]S(=O)(=O)C(F)(F)F)C(F)(F)F
activity coefficient (302.55 K): 2.4 ± 0.16
activity coefficient (312.15 K): 2.14 ± 0.15
activity coefficient (322.85 K): 1.89 ± 0.13
activity coefficient (333.35 K): 1.67 ± 0.11
activity coefficient (343.65 K): 1.53 ± 0.1
activity coefficient (354.05 K): 1.37 ± 0.09

CCCCCCCC=O [octanal] + CCCC[N+](C)(C)C.O=S(=O)([N-]S(=O)(=O)C(F)(F)F)C(F)(F)F
activity coefficient (364.64 K): 3.53 ± 0.24
activity coefficient (374.95 K): 3.48 ± 0.24
activity coefficient (385.45 K): 3.44 ± 0.23
activity coefficient (395.95 K): 3.37 ± 0.23

CCCCCCC [heptane] + CCCC[N+](C)(C)C.O=S(=O)([N-]S(=O)(=O)C(F)(F)F)C(F)(F)F
activity coefficient (301.62 K): 30.2 ± 2.1
activity coefficient (312.15 K): 27.7 ± 1.9
activity coefficient (322.75 K): 25.6 ± 1.8
activity coefficient (333.25 K): 23.4 ± 1.6

CCCO [propan-1-ol] + CCCC[N+](C)(C)C.O=S(=O)([N-]S(=O)(=O)C(F)(F)F)C(F)(F)F
activity coefficient (301.75 K): 2.76 ± 0.19
activity coefficient (312.15 K): 2.43 ± 0.17
activity coefficient (322.85 K): 2.14 ± 0.15
activity coefficient (333.35 K): 1.9 ± 0.13

Cc1ccccc1 [toluene] + CCCC[N+](C)(C)C.O=S(=O)([N-]S(=O)(=O)C(F)(F)F)C(F)(F)F
activity coefficient (322.75 K): 1.73 ± 0.12
activity coefficient (333.25 K): 1.71 ± 0.11
activity coefficient (343.65 K): 1.7 ± 0.11
activity coefficient (364.45 K): 1.68 ± 0.11

CC#N [acetonitrile] + CCCC[N+](C)(C)C.O=S(=O)([N-]S(=O)(=O)C(F)(F)F)C(F)(F)F
activity coefficient (301.75 K): 0.52 ± 0.04
activity coefficient (312.45 K): 0.5 ± 0.04
activity coefficient (322.95 K): 0.49 ± 0.04
activity coefficient (333.35 K): 0.47 ± 0.04
activity coefficient (343.75 K): 0.46 ± 0.04

CCCc1ccccc1 [propylbenzene] + CCCC[N+](C)(C)C.O=S(=O)([N-]S(=O)(=O)C(F)(F)F)C(F)(F)F
activity coefficient (333.25 K): 3.95 ± 0.27
activity coefficient (343.65 K): 3.86 ± 0.26
activity coefficient (354.05 K): 3.79 ± 0.26
activity coefficient (364.45 K): 3.69 ± 0.25

Reference: the NIST ThermoML archive (doi:10.1021/je050440b)
